Blank lines part the entries; values can stand above or below the molecule they belong to.
Legend:
[1] = tested on: LPA1; conditions: read-out: EC50 at LPA1; cited from earlier work
[2] = tested on: LPA2; conditions: read-out: EC50 at LPA2; cited from earlier work
[3] = biological target: LPA1 receptor (Homo sapiens, UniProt Q92633); assay: Ca2+ mobilization assay in LPA1 stably transfected RH7777 cells; assay type: cell-based; conditions: for LPA1 agonist activity (in words): highest concentration tested 10 μM
LPA1 receptor, sequence (Q92633 whole entry): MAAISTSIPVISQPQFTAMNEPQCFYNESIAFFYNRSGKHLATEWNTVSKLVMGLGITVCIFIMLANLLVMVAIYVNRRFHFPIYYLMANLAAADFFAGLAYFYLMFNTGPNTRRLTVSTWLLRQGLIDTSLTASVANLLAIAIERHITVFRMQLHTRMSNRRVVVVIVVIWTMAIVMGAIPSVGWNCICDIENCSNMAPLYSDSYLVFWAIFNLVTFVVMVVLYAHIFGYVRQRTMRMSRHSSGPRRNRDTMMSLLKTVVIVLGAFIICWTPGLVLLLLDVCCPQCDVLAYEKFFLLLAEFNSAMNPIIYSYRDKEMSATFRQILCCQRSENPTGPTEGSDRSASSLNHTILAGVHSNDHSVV

[4] = stability studies in PBS and cellular culture medium; assay type: physicochemical; conditions: up to 8 hours at 37 °C
[5] = tested on: B103 neuroblastoma cells overexpressing EGFP-LPA1 receptor; assay: neurite retraction assay; assay type: cell-based; conditions: 15 minutes treatment
[6] = tested on: B103 neuroblastoma cells overexpressing LPA1 receptor; assay: transwell migration assay; assay type: cell-based; conditions: 1 μM in lower chamber, 5 h
[7] = tested on: dorsal root ganglia (DRG) neurons; assay: calcium microfluorography in primary DRG sensory neurons; assay type: cell-based, rat; conditions: two repetitive applications of 10 μM
[8] = tested on: DRG neurons (nociceptors); assay: multielectrode array; assay type: cell-based, rat; conditions: 10 μM, two consecutive pulses
[9] = tested on: mice; assay: acetic acid-induced writhing assay; assay type: in vivo, mouse
[10] = tested on: mice with SNI; assay: spared nerve injury; assay type: in vivo, mouse; conditions: 10 mg/kg i.p. daily; 3, 10 and 21 days post-surgery, vs vehicle
[11] = tested on: mice; assay: open field test, exploratory and locomotor activity; assay type: in vivo, mouse; conditions: at the selected dose (10 mg/kg i.p.)
[12] = tested on: EGFP-LPA1 fusion receptor; assay: LPA1 receptor internalization assay; conditions: 1 μM

SMILES: CCCCCCCC/C=C\CCCCCCCC(=O)NCCC(=O)P(=O)(O)O [Compound 2]
EC50 [1]: 0.221 µM
EC50 [2]: 1.09 µM

SMILES: CCCCCCCCCC/C=C\CCCCCCCC(=O)OC[C@@H](O)COP(=O)(O)O [Compound 16, (2R)-2-Hydroxy-3-(phosphonooxy)propyl (9Z)-icos-9-enoate]
LPA1 agonist activity (in words) [3]: inactive

SMILES: CCCCCCCC/C=C\CCCCCCCC(=O)OC[C@@H](O)COP(=O)(O)O [LPA, 1-oleoyl-sn-glycerol-3-phosphate, reference compound]
Ca2+ response relative to 10 μM ionomycin ([3]; 10 μM LPA, positive control): 30–33%
Emax at 10 µM ([3]; RH7777): 100%
Ca2+ response on repeated application [7]: the Ca^2+ response is notably reduced in a second LPA application
neuronal firing of action potentials on repeated application [8]: provoked the firing of action potentials that were attenuated upon a second instillation
LPA1 internalization [12]: the receptor is internalized

More lines, main results first:

LPA1 agonist activity (in words) [3]: inactive
SMILES: O=C(CCCCCCCc1ccccc1)OC[C@@H](O)COP(=O)(O)O [Compound 19, (2R)-2-Hydroxy-3-(phosphonooxy)propyl 8-phenyloctanoate]

compound remaining (stability) ([4]; PBS): > 85%
compound remaining (stability) ([4]; culture media): > 85%
SMILES: O=C(CCCCCCCCCc1ccccc1)O[C@H](CBr)COP(=O)(O)O [Compound (S)-17, (2S)-1-Bromo-3-(phosphonooxy)propan-2-yl 10-phenyldecanoate]
neurite retraction [5]: induced neurite retraction
cell migration [6]: induced cell migration
Ca2+ response on repeated application [7]: induced a reduction of the Ca^2+ responses
neuronal firing of action potentials on repeated application [8]: provoked the firing of action potentials that were attenuated upon a second instillation
number of writhes after acute single administration [9]: increased the number of writhes in the first minutes after the administration
mechanical nociceptive threshold [10]: significantly superior compared to vehicle-treated mice
exploratory or locomotor activity [11]: did not induce any alteration in the exploratory or locomotor activity
